# Measurements published in PubChem BioAssay (NCI).
#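 Following 48 hours of exposure in 96-well plates, responses at five concentrations were used to interpolate endpoints linearly. TGI is the concentration that stops growth completely.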
# Assays:
# Assay in all cases: NCI-60 cell line screen, 48 h
# [1] = test system: M19-MEL melanoma
# [2] = test system: OVCAR-4 ovarian
# [3] = test system: LXFL 529 NSCLC
# [4] = test system: NCI-H226 lung
# [5] = test system: DMS 114 small cell lung
# [6] = test system: HOP-18 NSCLC
# [7] = test system: DLD-1 colon
# [8] = test system: DMS 273 small cell lung
# [9] = test system: A549 NSCLC
# [10] = test system: NCI-H522 lung
# [11] = test system: KM20L2 colon
# [12] = test system: SNB-78 CNS
# [13] = test system: XF 498 CNS
# [14] = test system: MDA-MB-231 breast
smiles,measurement,setting,value
O=c1c2ccccc2nc(-c2ccccc2)n1NC(=S)Nc1cccc(Cl)c1,TGI,[1],> 100 µM
same,TGI,[2],> 100 µM
same,TGI,[3],> 100 µM
same,TGI,[4],> 100 µM
same,TGI,[5],> 100 µM
same,TGI,[6],> 100 µM
same,TGI,[7],> 100 µM
same,TGI,[8],> 100 µM
same,TGI,[9],> 100 µM
same,TGI,[10],> 100 µM
COc1ccc2c([nH]c3c(O)c(-c4c(C)cc5c([nH]c6c(CC=C(C)C)c(OC)ccc65)c4O)c(C)cc32)c1CC=C(C)C,TGI,[11],> 100 µM
same,TGI,[1],> 100 µM
same,TGI,[2],> 100 µM
same,TGI,[3],> 100 µM
same,TGI,[5],> 100 µM
same,TGI,[6],> 100 µM
same,TGI,[7],> 100 µM
same,TGI,[8],> 100 µM
same,TGI,[9],> 100 µM
same,TGI,[12],> 100 µM
same,TGI,[10],> 100 µM
CN(C)CN(C)c1nc(N(C)C)nc(N(C)CN(C)C)n1,TGI,[11],> 100 µM
same,TGI,[1],> 100 µM
same,TGI,[2],> 100 µM
same,TGI,[3],> 100 µM
same,TGI,[4],> 100 µM
same,TGI,[6],> 100 µM
same,TGI,[7],> 100 µM
same,TGI,[13],> 100 µM
same,TGI,[8],33.3 µM
same,TGI,[9],> 100 µM
same,TGI,[10],> 100 µM
COc1cc(C(C#N)NNc2nc(C)cc(=O)[nH]2)cc(OC)c1OC (configuration not stated),TGI,[11],> 100 µM
same,TGI,[1],> 100 µM
same,TGI,[2],> 100 µM
same,TGI,[3],> 100 µM
same,TGI,[4],> 100 µM
same,TGI,[6],> 100 µM
same,TGI,[7],> 100 µM
same,TGI,[8],> 100 µM
same,TGI,[9],> 100 µM
same,TGI,[12],> 100 µM
same,TGI,[10],> 100 µM
CC(C)[Si](OCC1CC(C#N)OC(C)(C)O1)(C(C)C)C(C)C (configuration not stated),TGI,[11],65.8 µM
same,TGI,[1],76.9 µM
same,TGI,[2],> 100 µM
same,TGI,[4],35 µM
same,TGI,[6],> 100 µM
same,TGI,[7],> 100 µM
same,TGI,[13],37 µM
same,TGI,[8],35.8 µM
same,TGI,[9],> 100 µM
same,TGI,[12],52.1 µM
same,TGI,[10],43.5 µM
Cc1ccc(S[C@@H](C)[C@@](O)(C(N)=O)c2ccccc2)cc1,TGI,[2],46.3 µM
same,TGI,[4],> 100 µM
same,TGI,[14],46 µM
same,TGI,[9],> 100 µM
same,TGI,[10],33 µM
CCCCCCCCCCCCO[P+](=O)OCCCCCCCCCCCC,TGI,[2],> 100 µM
same,TGI,[4],> 100 µM
same,TGI,[14],> 100 µM
same,TGI,[9],> 100 µM
same,TGI,[10],> 100 µM
O=C1CC(c2ccccc2)S(=O)c2ccccc2N1 (configuration not stated),TGI,[2],> 100 µM
same,TGI,[4],> 100 µM
same,TGI,[14],> 100 µM
same,TGI,[9],> 100 µM
same,TGI,[10],> 100 µM
O=S(=O)(O)c1ccc2c(N=Nc3ccc(Sc4ccc(N=Nc5c(O)ccc6cc(S(=O)(=O)O)ccc56)cc4)cc3)c(O)ccc2c1,TGI,[2],> 100 µM
same,TGI,[4],> 100 µM
same,TGI,[14],> 100 µM
same,TGI,[9],> 100 µM
same,TGI,[10],> 100 µM
c1cc2c(cc1C1=NCCN1)c1cc(C3=NCCN3)ccc1n2CC1CCCCC1,TGI,[2],> 100 µM
same,TGI,[4],48.7 µM
same,TGI,[14],> 100 µM
same,TGI,[9],> 100 µM
same,TGI,[10],21.6 µM
O=C(NCCCCCN1CCC2(CCCCC2)CC1)C(C1CCCCC1)C1CCCCC1,TGI,[2],14.5 µM
same,TGI,[4],11.8 µM
same,TGI,[14],10.8 µM
same,TGI,[9],16.7 µM
same,TGI,[10],9.01 µM
CCOC(=O)CC(NC(=O)c1ccc(N=NN(C)C)cc1)C(=O)OCC (configuration not stated),TGI,[1],> 100 µM
same,TGI,[2],> 100 µM
same,TGI,[3],> 100 µM
same,TGI,[4],> 100 µM
same,TGI,[7],> 100 µM
same,TGI,[8],> 100 µM
same,TGI,[9],> 100 µM
same,TGI,[10],> 100 µM
CC(C)(C)[Si](C)(C)OC[C@H](/C=C\CCCC(=O)O)NC1(c2ccccc2)c2ccccc2-c2ccccc21,TGI,[2],> 100 µM
same,TGI,[4],26 µM
same,TGI,[14],39.3 µM
same,TGI,[9],> 100 µM
same,TGI,[10],> 100 µM
CSCCCNC(=O)[C@H](CSC)NC(=O)c1csc(CCNC(=O)[C@@H](NSc2ccccc2[N+](=O)[O-])C(C)O)n1 (some centres not stated),TGI,[2],> 100 µM
same,TGI,[4],> 100 µM
same,TGI,[14],> 100 µM
same,TGI,[9],> 100 µM
same,TGI,[10],> 100 µM
O=P(O)(O)CN1CCNCCN(CP(=O)(O)O)CC1,TGI,[2],> 100 µM
same,TGI,[4],> 86.8 µM
same,TGI,[14],> 100 µM
same,TGI,[9],58.7 µM
same,TGI,[10],> 100 µM
CCOC(=O)C1=C(C)N(Cc2ccccc2)C2(O)C=CC(=O)C3=C(O)c4ccccc4C(=O)C312 (configuration not stated),TGI,[2],38.7 µM
same,TGI,[4],54.4 µM
same,TGI,[14],37.8 µM
same,TGI,[9],39.8 µM
same,TGI,[10],27.2 µM
